Like-named read-outs stand apart in the source and are kept apart here.
What was measured:
Trichostrongylus axei = test: B.2 Activity against Trichostrongylus axei in 4th larval and adult stages in lambs; format: in vivo; details: oral 4 mg/kg
Protocol: (§1) B.2. Activity against Haemonchus contortus, Ostertagia circumcincta, Trichostrongylus axei, Trichostrongylus colubriformis and Nematodirus spathiger in their 4th larval and adult stages in lambs.
(§2) Worm-free, 8-10 week old lambs were each infected with 5,000 H. contortus, 15,000 O. circumcincta, 20,000 T. axei, 15,000 T. colubriformis and 15,000 N. spathiger larvae.
(§3) Doses of test compound A of 4 mg/kg animal body weight were then administered to each group of 2 animals, by the oral route, after 7 days or 25 days to examine the effects against the 4th larval stage and mature adult worms respectively, one group of 2 animals being left untreated as a control. All the lambs were killed for post-mortem worm wounts 28 days after infection. The activities, expressed in terms of the percentage reduction in mean worm burden of each worm species compared with the untreated control group, are given below in Table III.

Fasciola hepatica = test: D. Activity against mature and immature liver flukes in sheep; format: in vivo; details: oral 25 mg/kg in gelatin capsules
Protocol: D. Activity against mature and immature liver flukes in sheep On the first day of the experiment a group of sheep were each infected with 300 metacercariae of liver fluke Fasciola hepatica and on the 56th day they were each infected with a further 300 metacercariae of F. hepatica. On day 70 of the experiment, doses of the test compounds of 25 mg/kg animal body weight were administered orally in gelatin capsules to groups of two animals per compound. One group of two animals was left untreated as controls. On day 98 of the experiment, all the sheep were killed. The number of mature flukes present in the bile ducts and the numbers of immature flukes present in the rest of the liver were counted. The activities, expressed in terms of the percentage reduction in mean fluke burdens compared with the untreated controls, are shown below in Table VI.

Nematodirus spathiger [1] = test: B.2 Activity against Nematodirus spathiger in 4th larval and adult stages in lambs; format: in vivo; details: oral 4 mg/kg
Protocol: as §1, §2, §3

Mycosphaerella pinodes = test: Minimum effective concentration totally inhibiting fungal growth, Mycosphaerella pinodes, potato dextrose agar tubes; format: cell-based; details: Didymella pinodes, 48 h; total inhibition of fungal growth; tested at 50, 10 or 2 ppm; 25° C, 2 days
Protocol: Test tubes containing 4.0 ml of molten potato dextrose agar at about 50° C were inoculated with 0.5 ml of suspension of test compound and 0.5 ml of fungal suspension delivered from a sterile syringe to give a final concentration of each compound of 50, 10 or 2 ppm. Two replicate tubes were inoculated with each fungal species. After the addition of test compounds and fungal inoculum to the molten medium the tubes were sloped and the agar was allowed to set. The tubes were incubated at 25° C for either 2 days (Mycosphaerella pinodes) or 3 days (Helminthosporium avenae). […] The suspensions of test compounds were prepared by grinding 0.025 g of test compound with sterile distilled water containing 0.1 ml of 0.1% Texofor FX170 wetting agent, followed by dilution to the concentration desired. The inoculum of Mycosphaerella pinodes was prepared as follows: A one to two week old culture on Coon's agar on plates was scraped off with a glass rod and sterile distilled water and filtered through muslin. The filtrate, containing the spores, was used for inoculation.

Haemonchus contortus [2] = test: B.1 Activity against adult Haemonchus contortus in lambs; format: in vivo; details: s.c. 10 mg/kg (methanesulphonate salt), adult stage
Protocol: (§4) B.1. Activity against Haemonchus contortus and Nematodirus spathiger in their adult stages in lambs.
(§5) Worm-free, 8-10 week old lambs were each infected with 5000 H. contortus and 15000 N. spathiger larvae. Approximately 3 weeks later, doses of test compound A were administered to each group of 2 animals, by the subcutaneous route, one group of 2 animals being left untreated as a control.
(§6) Individual faecal H. contortus egg counts were determined 1 day before and 5- 7 days after treatment, when all the lambs were killed for post-mortem worm counts. The activities, expressed in terms of the percentage reduction in mean worm burden of each worm species compared with the untreated control group, are given below.

[3] = Oral acute toxicity (LD50) in mice; details: mouse, in vivo, observed during next 6 days
Description: Mice were each treated orally with one of the compounds of formula I, and they were observed during the next 6 days. The LD50 figures obtained (doses lethal to 50% of mice tested) are shown in Table VII, expressed in mg/kg animal body weight.

[4] = system: Nippostrongylus brasiliensis; test: Activity against roundworms in rats, A.1: treatment 6 days after infection (patent infection), post-mortem worm counts; format: in vivo; details: 48 h, oral, 100 mg/kg, treated 6 days after infection, read-out: % Reduction of mean worm load
Protocol: In the Tables of results "s.c." means subcutaneous and the doses are expressed in mg/kg animal body weight. […] A.1. Rats were infected with 100 Nippostrongylus brasiliensis larvae each, by the subcutaneous route. After 6 days, when the infection was patent, the rats were randomised and allotted to groups of 5 animals each, ready for treatment. One group was used for each dose level of the test compound, which was administered by the oral or subcutaneous route, and in each experiment, one group of 10 animals was left untreated as a control. All the rats were killed for post-mortem worm counts 48 hours after treatment. The activities, expressed in terms of the percentage reduction in mean worm load of the treated groups compared with the untreated group, are shown in Table I.

Nematodirus spathiger [5] = test: B.1 Activity against adult Nematodirus spathiger in lambs; format: in vivo; details: s.c. 10 mg/kg (methanesulphonate salt), adult stage
Protocol: as §4, §5, §6

Haemonchus contortus [6] = test: B.2 Activity against Haemonchus contortus in 4th larval and adult stages in lambs; format: in vivo; details: oral 4 mg/kg
Protocol: as §1, §2, §3

Ostertagia ostertagi = test: C.2 Activity against Ostertagia ostertagi in mature and immature stages in calves; format: in vivo; details: s.c. 25 mg/kg (methanesulphonate salt)
Protocol: (§7) C.2. Activity against Cooperia oncophora, Ostertagia ostertagi, and Dictyocaulus viviparus in their mature and immature stages in calves. Worm free, 6-7 week old calves were each infected with 15,000 C. oncophora, 15,000 O. ostertagi and 3,000 D. viviparus larvae. Groups of two animals each were treated subcutaneously with test compound A at a dose of 25 mg/kg animal body weight at 7 days or 25 days after infection, one group of two animals being left untreated as a control. All calves were killed approximately 28 days after infection and were examined for residual worm burdens. The percentage reduction in mean worm burden of each worm species compared with the untreated control group is given below in Table V.

[7] = system: Trichostrongylus colubriformis; test: B.2 Activity against Trichostrongylus colubriformis in 4th larval and adult stages in lambs; format: in vivo; details: oral 4 mg/kg
Protocol: as §1, §2, §3

Dictyocaulus viviparus = test: C.2 Activity against Dictyocaulus viviparus in mature and immature stages in calves; format: in vivo; details: s.c. 25 mg/kg (methanesulphonate salt)
Protocol: as §7

[8] = system: Nippostrongylus brasiliensis; test: Activity against roundworms in rats, A.2: treatment 24 hours after infection, post-mortem worm counts; format: in vivo; details: 144 h, treated 24 hours after infection, read-out: % Reduction of mean worm load
Protocol: In the Tables of results "s.c." means subcutaneous and the doses are expressed in mg/kg animal body weight. […] A.2. Rats were infected with 100 Nippostrongylus brasiliensis larvae each, by the subcutaneous route. After 24 hours the rats were randomised and allotted to groups of 5 animals each, ready for treatment. Doses of the test compound were then administered to each group by the oral or subcutaneous route, one group of 10 animals being left untreated as a control. All the rats were killed for post-mortem worm counts 6 days after dosing. The activities, expressed in terms of the percentage reduction in mean worm load of the treated groups compared with the untreated control group, are given below in Table II.

Ostertagia circumcincta = test: B.2 Activity against Ostertagia circumcincta in 4th larval and adult stages in lambs; format: in vivo; details: oral 4 mg/kg
Protocol: as §1, §2, §3

Cooperia oncophora = test: C.2 Activity against Cooperia oncophora in mature and immature stages in calves; format: in vivo; details: s.c. 25 mg/kg (methanesulphonate salt)
Protocol: as §7

[9] = treated at 7 days (4th larval stage)
[10] = treated at 25 days (mature adult worms)
[11] = treated 25 days after infection
[12] = sc, s.c. (methanesulphonate salt, aqueous)

With `COC(=O)N=C1SCC(=O)N1c1ccc(Sc2ccccc2)cc1NC(=O)CN(C)C` [Compound A, 3-[2-(2-dimethylaminoacetamido)-4-phenylthiophenyl]-2-methoxycarbonyliminothiazolidin-4-one] the “Percentage reduction in mean worm burdens, T. axei” value (Trichostrongylus axei; [9]) was 100%, the “Percentage reduction in mean worm burdens, T. axei” value (Trichostrongylus axei; [10]) was 100% and the “Mean % Reduction, Immature flukes” value (Fasciola hepatica; immature flukes in rest of liver) was 29%. For the same molecule, the “Mean % Reduction, Mature flukes” value (Fasciola hepatica; mature flukes in bile ducts) was 93%, the “Percentage reduction in mean worm burdens, N. spathiger” value (Nematodirus spathiger [1]; [9]) was 95% and the “Percentage reduction in mean worm burdens, N. spathiger” value (Nematodirus spathiger [1]; [10]) was 97%. The MIC (Mycosphaerella pinodes) was under 2 mg/L, the “reduction of the mean worm burden of H. contortus” value (Haemonchus contortus [2]) was 100% and the LD50 at 144 h [3] was about 1000 mg/kg. For the same molecule, the inhibition in vivo at 100 mg/kg [4] was 99%, the “reduction of the mean worm burden of N. spathiger” value (Nematodirus spathiger [5]) was 99% and the “Percentage reduction in mean worm burdens, H. contortus” value (Haemonchus contortus [6]; [9]) was 100%. The “Percentage reduction in mean worm burdens, H. contortus” value (Haemonchus contortus [6]; [10]) was 100%, the “% Reduction of mean worm burdens, O. ostertagi” value (Ostertagia ostertagi; treated 7 days after infection) was 97% and the “% Reduction of mean worm burdens, O. ostertagi” value (Ostertagia ostertagi; [11]) was 100%. For the same molecule, the “Percentage reduction in mean worm burdens, T. colubriformis” value [7, 9] was 100%, the “Percentage reduction in mean worm burdens, T. colubriformis” value [7, 10] was 100% and the “% Reduction of mean worm burdens, D. viviparus” value (Dictyocaulus viviparus; treated 7 days after infection) was 83%. For the same molecule, the “% Reduction of mean worm burdens, D. viviparus” value (Dictyocaulus viviparus; [11]) was 82%, the inhibition in vivo at 12.5 mg/kg ([8]; oral) was 85% and the inhibition in vivo at 50 mg/kg ([8]; oral) was 99%. The inhibition in vivo at 12.5 mg/kg [8, 12] was 91%, the inhibition in vivo at 50 mg/kg [8, 12] was 99% and the “Percentage reduction in mean worm burdens, O. circumcincta” value (Ostertagia circumcincta; [9]) was 99%. For the same molecule, the “Percentage reduction in mean worm burdens, O. circumcincta” value (Ostertagia circumcincta; [10]) was 100%, the “% Reduction of mean worm burdens, C. oncophora” value (Cooperia oncophora; treated 7 days after infection) was 100% and the “% Reduction of mean worm burdens, C. oncophora” value (Cooperia oncophora; [11]) was 100%.

— US4071528A, “Certain thiazolidine and tetrahydrothiazine compounds” (May & Baker Limited, priority 1975, dated 1978)
